Experimental data as given in US9051310B2, “Nicotinamide derivative or salt thereof” (FUJIFILM Corporation, priority 2011, dated 2015).

Target: T1, glutathione S-transferase (GST)-linked full-length human Syk protein (Homo sapiens, UniProt P43405)
T1 construct: glutathione S-transferase (GST)-linked full-length human Syk protein; purchased Carna Biosciences; host or cells: Baculovirus expression system
Experiment: Syk enzyme assay
Type: biochemical
Settings: 0.83 nM Syk, time-resolved fluorescence; read-out: IC50 of Syk-inhibitory activity
Procedure, shortened: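 Phosphotyrosine on a biotin-peptide substrate (0.5 μM) was read by time-resolved fluorescence at 615 and 665 nm with Eu-anti-pTyr antibody and APC-streptavidin after 1 h EDTA stop.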

Row | IC50 | SMILES
1 | 10 to 50 nM | CC[C@H](N)[C@@H](C)Nc1nc(Nc2cnc(OC)c(-n3nccn3)c2)c(C(N)=O)cc1F [Example 2-279, 6-(((2R,3S)-3-aminopentan-2-yl)amino)-5-fluoro-2-((6-methoxy-5-(2H-1,2,3-triazol-2-yl)pyridin-3-yl)amino)nicotinamide]
2 | 10 to 50 nM | CN(C)c1nn(C)c2ncc(Nc3nc(N[C@@H]4CCCC[C@@H]4N)c(F)cc3C(N)=O)cc12 [Example 2-286, 6-(((1R,2S)-2-aminocyclohexyl)amino)-2-((3-(dimethylamino)-1-methyl-1H-pyrazolo[3,4-b]pyridin-5-yl)amino)-5-fluoronicotinamide]
3 | 10 to 50 nM | CC(C)C[C@H](CN)Nc1nc(Nc2cnc3c(c2)c(N(C)C)nn3C)c(C(N)=O)cc1F [Example 2-287, (R)-6-((1-amino-4-methylpentan-2-yl)amino)-2-((3-(dimethylamino)-1-methyl-1H-pyrazolo[3,4-b]pyridin-5-yl)amino)-5-fluoronicotinamide]
4 | 10 to 50 nM | CC[C@@H](Nc1nc(Nc2cnc3c(c2)c(N(C)C)nn3C)c(C(N)=O)cc1F)[C@H](C)N [Example 2-288, 6-(((2S,3R)-2-aminopentan-3-yl)amino)-2-((3-(dimethylamino)-1-methyl-1H-pyrazolo[3,4-b]pyridin-5-yl)amino)-5-fluoronicotinamide]
5 | < 10 nM | CCC[C@@H](Nc1nc(Nc2cnc3c(c2)c(N(C)C)nn3C)c(C(N)=O)cc1F)[C@H](C)N [Example 2-289, 6-(((2S,3R)-2-aminohexan-3-yl)amino)-2-((3-(dimethylamino)-1-methyl-1H-pyrazolo[3,4-b]pyridin-5-yl)amino)-5-fluoronicotinamide]
6 | 10 to 50 nM | C[C@H](N)[C@H](Nc1nc(Nc2cnc3c(c2)c(N(C)C)nn3C)c(C(N)=O)cc1F)C1CC1 [Example 2-290, 6-(((1R,2S)-2-amino-1-cyclopropylpropyl)amino)-2-((3-(dimethylamino)-1-methyl-1H-pyrazolo[3,4-b]pyridin-5-yl)amino)-5-fluoronicotinamide]
7 | < 10 nM | C[C@H](N)[C@H](Nc1nc(Nc2cnc3c(c2)c(N(C)C)nn3C)c(C(N)=O)cc1F)C1CCC1 [Example 2-293, 6-(((1R,2S)-2-amino-1-cyclobutylpropyl)amino)-2-((3-(dimethylamino)-1-methyl-1H-pyrazolo[3,4-b]pyridin-5-yl)amino)-5-fluoronicotinamide]
8 | 10 to 50 nM | Cc1nn(CC(F)F)c2ccc(Nc3nc(N[C@H](C)[C@@H](N)C4CC4)c(F)cc3C(N)=O)cc12 [Example 2-300, 6-(((1S,2R)-1-amino-1-cyclopropylpropan-2-yl)amino)-2-((1-(2,2-difluoroethyl)-3-methyl-1H-indazol-5-yl)amino)-5-fluoronicotinamide]
9 | 50 to 100 nM | C[C@@H](Nc1nc(Nc2ccc3c(c2)c(N(C)C)nn3C)c(C(N)=O)cc1F)[C@@H](N)C1CC1 [Example 2-301, 6-(((1S,2R)-1-amino-1-cyclopropylpropan-2-yl)amino)-2-((3-(dimethylamino)-1-methyl-1H-indazol-5-yl)amino)-5-fluoronicotinamide]
10 | < 10 nM | COCCn1ncc2c(Nc3nc(N[C@@H](CN)CC(C)C)c(F)cc3C(N)=O)cccc21 [Example 2-303, (R)-6-((1-amino-4-methylpentan-2-yl)amino)-5-fluoro-2-((1-(2-methoxyethyl)-1H-indazol-4-yl)amino)nicotinamide]
11 | < 10 nM | CC[C@@H](Nc1nc(Nc2cccc3c2cnn3CCOC)c(C(N)=O)cc1F)[C@H](C)N [Example 2-304, 6-(((2S,3R)-2-aminopentan-3-yl)amino)-5-fluoro-2-((1-(2-methoxyethyl)-1H-indazol-4-yl)amino)nicotinamide]
12 | < 10 nM | CCCC[C@@H](Nc1nc(Nc2cccc3c2cnn3CCOC)c(C(N)=O)cc1F)[C@H](C)N [Example 2-307, 6-(((2S,3R)-2-aminoheptan-3-yl)amino)-5-fluoro-2-((1-(2-methoxyethyl)-1H-indazol-4-yl)amino)nicotinamide]
13 | < 10 nM | COCCn1ncc2c(Nc3nc(N[C@H](CC(C)C)[C@H](C)N)c(F)cc3C(N)=O)cccc21 [Example 2-308, 6-(((2S,3R)-2-amino-5-methylhexan-3-yl)amino)-5-fluoro-2-((1-(2-methoxyethyl)-1H-indazol-4-yl)amino)nicotinamide]
14 | 10 to 50 nM | COCCn1ncc2c(Nc3nc(N[C@H](COC)[C@H](C)N)c(F)cc3C(N)=O)cccc21 [Example 2-309, 6-(((2S,3S)-3-amino-1-methoxybutan-2-yl)amino)-5-fluoro-2-((1-(2-methoxyethyl)-1H-indazol-4-yl)amino)nicotinamide]
15 | 50 to 100 nM | CCOC[C@@H](Nc1nc(Nc2cccc3c2cnn3CCOC)c(C(N)=O)cc1F)[C@H](C)N [Example 2-310, 6-(((2S,3S)-3-amino-1-ethoxybutan-2-yl)amino)-5-fluoro-2-((1-(2-methoxyethyl)-1H-indazol-4-yl)amino)nicotinamide]
16 | < 10 nM | C[C@H](N)[C@H](Nc1nc(Nc2cnc(N3CCOCC3)c(F)c2)c(C(N)=O)cc1F)c1ccccc1 [Example 2-314, 6-(((1R,2S)-2-amino-1-phenylpropyl)amino)-5-fluoro-2-((5-fluoro-6-morpholinopyridin-3-yl)amino)nicotinamide]
17 | 10 to 50 nM | C[C@H](N)[C@H](Nc1nc(Nc2ccc3c(c2)c(N(C)C)nn3C)c(C(N)=O)cc1F)c1ccccc1 [Example 2-315, 6-(((1R,2S)-2-amino-1-phenylpropyl)amino)-2-((3-(dimethylamino)-1-methyl-1H-indazol-5-yl)amino)-5-fluoronicotinamide]
18 | 10 to 50 nM | Cc1nn(C)c2ncc(Nc3nc(N[C@@H]4CCOC[C@@H]4N)c(F)cc3C(N)=O)cc12 [Example 2-333, 6-(((3R,4R)-3-aminotetrahydro-2H-pyran-4-yl)amino)-2-((1,3-dimethyl-1H-pyrazolo[3,4-b]pyridin-5-yl)amino)-5-fluoronicotinamide]
19 | 10 to 50 nM | CN(C)c1nn(C)c2ncc(Nc3nc(N[C@@H]4CCOC[C@@H]4N)c(F)cc3C(N)=O)cc12 [Example 2-335, 6-(((3R,4R)-3-aminotetrahydro-2H-pyran-4-yl)amino)-2-((3-(dimethylamino)-1-methyl-1H-pyrazolo[3,4-b]pyridin-5-yl)amino)-5-fluoronicotinamide]
20 | < 10 nM | COc1ncc(Nc2nc(N[C@H](c3ccccc3)[C@H](C)N)c(F)cc2C(N)=O)cc1-n1ccnn1 [Example 2-336, 6-(((1R,2S)-2-amino-1-phenylpropyl)amino)-5-fluoro-2-((6-methoxy-5-(1H-1,2,3-triazol-1-yl)pyridin-3-yl)amino)nicotinamide]
21 | 50 to 100 nM | COc1ccc([C@@H](Nc2nc(Nc3ccc4ncccc4c3)c(C(N)=O)cc2F)[C@H](C)N)cc1 [Example 2-337, 6-(((1R,2S)-2-amino-1-(4-methoxyphenyl)propyl)amino)-5-fluoro-2-(quinolin-6-ylamino)nicotinamide]
22 | 50 to 100 nM | COc1ccc([C@@H](Nc2nc(Nc3cnc(OC)c(-n4ccnn4)c3)c(C(N)=O)cc2F)[C@H](C)N)cc1 [Example 2-339, 6-(((1R,2S)-2-amino-1-(4-methoxyphenyl)propyl)amino)-5-fluoro-2-((6-methoxy-5-(1H-1,2,3-triazol-1-yl)pyridin-3-yl)amino)nicotinamide]
23 | < 10 nM | CCn1ncc2cc(Nc3nc(N[C@H](c4ccc(OC)cc4)[C@H](C)N)c(F)cc3C(N)=O)ccc21 [Example 2-341, 6-(((1R,2S)-2-amino-1-(4-methoxyphenyl)propyl)amino)-2-((1-ethyl-1H-indazol-5-yl)amino)-5-fluoronicotinamide]
24 | 10 to 50 nM | COc1ccc([C@@H](Nc2nc(Nc3ccc4c(c3)c(N(C)C)nn4C)c(C(N)=O)cc2F)[C@H](C)N)cc1 [Example 2-342, 6-(((1R,2S)-2-amino-1-(4-methoxyphenyl)propyl)amino)-2-((3-(dimethylamino)-1-methyl-1H-indazol-5-yl)amino)-5-fluoronicotinamide]
25 | 10 to 50 nM | COc1cc(Nc2nc(N[C@H](CCSC)[C@H](C)N)c(F)cc2C(N)=O)cc(OC)c1 [Example 2-345, 6-(((3R,4S)-4-amino-1-(methylthio)pentan-3-yl)amino)-2-((3,5-dimethoxyphenyl)amino)-5-fluoronicotinamide]
26 | < 10 nM | C[C@H](N)[C@H](Nc1nc(Nc2ccc3c(c2)c(OC(F)F)nn3C)c(C(N)=O)cc1F)C1CCC1 [Example 2-350, 6-(((1R,2S)-2-amino-1-cyclobutylpropyl)amino)-2-((3-(difluoromethoxy)-1-methyl-1H-indazol-5-yl)amino)-5-fluoronicotinamide]
27 | < 10 nM | CC[C@H](N)[C@@H](C)Nc1nc(Nc2ccc3c(c2)c(OC(F)F)nn3C)c(C(N)=O)cc1F [Example 2-351, 6-(((2R,3S)-3-aminopentan-2-yl)amino)-2-((3-(difluoromethoxy)-1-methyl-1H-indazol-5-yl)amino)-5-fluoronicotinamide]
28 | < 10 nM | CCC[C@@H](Nc1nc(Nc2ccc3c(c2)c(OC(F)F)nn3CCOC)c(C(N)=O)cc1F)[C@H](C)N [Example 2-353, 6-(((2S,3R)-2-aminohexan-3-yl)amino)-2-((3-(difluoromethoxy)-1-(2-methoxyethyl)-1H-indazol-5-yl)amino)-5-fluoronicotinamide]
29 | 10 to 50 nM | Cc1ncc(Nc2nc(N[C@H](c3ccc(C(F)(F)F)cc3)[C@H](C)N)c(F)cc2C(N)=O)cc1-n1nccn1 [Example 2-354, 6-(((1R,2S)-2-amino-1-(4-(trifluoromethyl)phenyl)propyl)amino)-5-fluoro-2-((6-methyl-5-(2H-1,2,3-triazol-2-yl)pyridin-3-yl)amino)nicotinamide]
30 | < 10 nM | COc1cc(Nc2nc(N[C@H](c3ccc(C(F)(F)F)cc3)[C@H](C)N)c(F)cc2C(N)=O)cc(OC)n1 [Example 2-355, 6-(((1R,2S)-2-amino-1-(4-(trifluoromethyl)phenyl)propyl)amino)-2-((2,6-dimethoxypyridin-4-yl)amino)-5-fluoronicotinamide]
